Reference: PubChem BioAssay (NCI)
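Exposure lasted 48 hours, with cells grown in 96-well plates and compounds tested at five concentrations. The concentration for 50% growth inhibition is given as GI50. TGI: concentration producing complete growth inhibition.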

Key:
Assay in all cases: NCI anticancer screen, dose series, 48 h
OVCAR-3 ovarian = tested on: OVCAR-3 ovarian
EKVX NSCLC = tested on: EKVX NSCLC
SNB-19 CNS = tested on: SNB-19 CNS
A498 renal = tested on: A498 renal
HL-60(TB) leukemia = tested on: HL-60(TB) leukemia
CAKI-1 renal = tested on: CAKI-1 renal
T-47D breast = tested on: T-47D breast
SW-620 colon = tested on: SW-620 colon
BT-549 breast = tested on: BT-549 breast
NCI-H522 lung = tested on: NCI-H522 lung
DU-145 prostate = tested on: DU-145 prostate
MALME-3M melanoma = tested on: MALME-3M melanoma
U251 CNS = tested on: U251 CNS
NCI/ADR-RES ovarian = tested on: NCI/ADR-RES ovarian
SK-OV-3 ovarian = tested on: SK-OV-3 ovarian
RPMI-8226 leukemia = tested on: RPMI-8226 leukemia
NCI-H226 lung = tested on: NCI-H226 lung
SK-MEL-28 melanoma = tested on: SK-MEL-28 melanoma
NCI-H23 lung = tested on: NCI-H23 lung
786-0 renal = tested on: 786-0 renal
HCT-116 colon = tested on: HCT-116 colon
K-562 leukemia = tested on: K-562 leukemia
MCF7 breast = tested on: MCF7 breast
A549 NSCLC = tested on: A549 NSCLC
LOX IMVI melanoma = tested on: LOX IMVI melanoma
RXF 393 renal = tested on: RXF 393 renal
HCT-15 colon = tested on: HCT-15 colon
SN12C renal = tested on: SN12C renal
HS 578T breast = tested on: HS 578T breast
TK-10 renal = tested on: TK-10 renal
OVCAR-4 ovarian = tested on: OVCAR-4 ovarian
M14 melanoma = tested on: M14 melanoma
PC-3 prostate = tested on: PC-3 prostate
ACHN renal = tested on: ACHN renal
MDA-MB-231 breast = tested on: MDA-MB-231 breast
HOP-62 NSCLC = tested on: HOP-62 NSCLC
OVCAR-5 ovarian = tested on: OVCAR-5 ovarian
KM12 colon = tested on: KM12 colon
SR leukemia = tested on: SR leukemia
MOLT-4 leukemia = tested on: MOLT-4 leukemia
NCI-H460 lung = tested on: NCI-H460 lung
COLO 205 colon = tested on: COLO 205 colon
SNB-75 CNS = tested on: SNB-75 CNS
SK-MEL-5 melanoma = tested on: SK-MEL-5 melanoma
UACC-257 melanoma = tested on: UACC-257 melanoma
MDA-MB-435 = tested on: MDA-MB-435
UO-31 renal = tested on: UO-31 renal
SF-539 CNS = tested on: SF-539 CNS
HT29 colon = tested on: HT29 colon
HOP-92 NSCLC = tested on: HOP-92 NSCLC
HCC-2998 colon = tested on: HCC-2998 colon
SF-295 CNS = tested on: SF-295 CNS
SK-MEL-2 melanoma = tested on: SK-MEL-2 melanoma
UACC-62 melanoma = tested on: UACC-62 melanoma
CCRF-CEM leukemia = tested on: CCRF-CEM leukemia
IGROV1 ovarian = tested on: IGROV1 ovarian
SF-268 CNS = tested on: SF-268 CNS

`Nc1cc2ccccc2c(O)c1O` gave a GI50 (OVCAR-3 ovarian) of 1.74 µM, a TGI (OVCAR-3 ovarian) of 3.52 µM and a GI50 (EKVX NSCLC) of 10.7 µM. The TGI (EKVX NSCLC) was 22.7 µM, the GI50 (SNB-19 CNS) was 15.6 µM and the TGI (SNB-19 CNS) was 31.9 µM. It also gave a GI50 (A498 renal) of 16.1 µM, a TGI (A498 renal) of 30.5 µM and a GI50 (HL-60(TB) leukemia) of 2.08 µM. It also gave a TGI (HL-60(TB) leukemia) of 5.77 µM, a GI50 (CAKI-1 renal) of 1.67 µM and a TGI (CAKI-1 renal) of 3.1 µM. It also gave a GI50 (T-47D breast) of 2.71 µM, a TGI (T-47D breast) of 7.69 µM and a GI50 (SW-620 colon) of 2.08 µM. For the same compound, the TGI (SW-620 colon) was 4.33 µM, the GI50 (BT-549 breast) was 13.3 µM and the TGI (BT-549 breast) was 26.1 µM. It also gave a GI50 (NCI-H522 lung) of 1.97 µM, a TGI (NCI-H522 lung) of 3.94 µM and a GI50 (DU-145 prostate) of 13.4 µM. For the same compound, the TGI (DU-145 prostate) was 27.4 µM, the GI50 (MALME-3M melanoma) was 1.87 µM and the TGI (MALME-3M melanoma) was 3.83 µM. The GI50 (U251 CNS) was 1.91 µM, the TGI (U251 CNS) was 3.48 µM and the GI50 (NCI/ADR-RES ovarian) was 2.37 µM. It also gave a TGI (NCI/ADR-RES ovarian) of 6.21 µM, a GI50 (SK-OV-3 ovarian) of 15.4 µM and a TGI (SK-OV-3 ovarian) of 29 µM. For the same compound, the GI50 (RPMI-8226 leukemia) was 2.72 µM, the TGI (RPMI-8226 leukemia) was 7.13 µM and the GI50 (NCI-H226 lung) was 2.36 µM. The TGI (NCI-H226 lung) was 5.84 µM, the GI50 (SK-MEL-28 melanoma) was 12.8 µM and the TGI (SK-MEL-28 melanoma) was 27.4 µM. For the same compound, the GI50 (NCI-H23 lung) was 3.5 µM, the TGI (NCI-H23 lung) was 17.9 µM and the GI50 (786-0 renal) was 1.85 µM. For the same compound, the TGI (786-0 renal) was 3.28 µM, the GI50 (HCT-116 colon) was 2.07 µM and the TGI (HCT-116 colon) was 4.5 µM. The GI50 (K-562 leukemia) was 2.59 µM, the TGI (K-562 leukemia) was 8.11 µM and the GI50 (MCF7 breast) was 1.88 µM. It also gave a TGI (MCF7 breast) of 4.32 µM, a GI50 (A549 NSCLC) of 20.5 µM and a TGI (A549 NSCLC) of 41.4 µM. For the same compound, the GI50 (LOX IMVI melanoma) was 1.59 µM, the TGI (LOX IMVI melanoma) was 2.94 µM and the GI50 (RXF 393 renal) was 1.83 µM. For the same compound, the TGI (RXF 393 renal) was 3.25 µM, the GI50 (HCT-15 colon) was 1.9 µM and the TGI (HCT-15 colon) was 4.08 µM. For the same compound, the GI50 (SN12C renal) was 2.13 µM, the TGI (SN12C renal) was 4.78 µM and the GI50 (HS 578T breast) was 5.7 µM. The TGI (HS 578T breast) was 96.2 µM, the GI50 (TK-10 renal) was 17.9 µM and the TGI (TK-10 renal) was 32.2 µM. The GI50 (OVCAR-4 ovarian) was 1.53 µM, the TGI (OVCAR-4 ovarian) was 2.88 µM and the GI50 (M14 melanoma) was 3.35 µM. The TGI (M14 melanoma) was 12.3 µM, the GI50 (PC-3 prostate) was 1.73 µM and the TGI (PC-3 prostate) was 3.91 µM. It also gave a GI50 (ACHN renal) of 1.69 µM, a TGI (ACHN renal) of 3.54 µM and a GI50 (MDA-MB-231 breast) of 1.96 µM. For the same compound, the TGI (MDA-MB-231 breast) was 5.22 µM, the GI50 (HOP-62 NSCLC) was 15.7 µM and the TGI (HOP-62 NSCLC) was 30.1 µM. The GI50 (OVCAR-5 ovarian) was 3.13 µM, the TGI (OVCAR-5 ovarian) was 13.5 µM and the GI50 (KM12 colon) was 5.24 µM. The TGI (KM12 colon) was 18.9 µM, the GI50 (SR leukemia) was 3.16 µM and the TGI (SR leukemia) was 13.2 µM. For the same compound, the GI50 (MOLT-4 leukemia) was 2.49 µM, the TGI (MOLT-4 leukemia) was 6.27 µM and the GI50 (NCI-H460 lung) was 13 µM. It also gave a TGI (NCI-H460 lung) of 32.1 µM, a GI50 (COLO 205 colon) of 15 µM and a TGI (COLO 205 colon) of 31.5 µM. The GI50 (SNB-75 CNS) was 1.94 µM, the TGI (SNB-75 CNS) was 18.4 µM and the GI50 (SK-MEL-5 melanoma) was 15.1 µM. For the same compound, the TGI (SK-MEL-5 melanoma) was 29.3 µM, the GI50 (UACC-257 melanoma) was 5.31 µM and the TGI (UACC-257 melanoma) was 18.1 µM. For the same compound, the GI50 (MDA-MB-435) was 1.83 µM, the TGI (MDA-MB-435) was 3.38 µM and the GI50 (UO-31 renal) was 2.53 µM. For the same compound, the TGI (UO-31 renal) was 10.3 µM, the GI50 (SF-539 CNS) was 1.79 µM and the TGI (SF-539 CNS) was 3.32 µM. It also gave a GI50 (HT29 colon) of 19.6 µM, a TGI (HT29 colon) of 41.8 µM and a GI50 (HOP-92 NSCLC) of 1.96 µM. The TGI (HOP-92 NSCLC) was 5.75 µM, the GI50 (HCC-2998 colon) was 12.8 µM and the TGI (HCC-2998 colon) was 27.1 µM. It also gave a GI50 (SF-295 CNS) of 15.7 µM, a TGI (SF-295 CNS) of 29.8 µM and a GI50 (SK-MEL-2 melanoma) of 14.4 µM. The TGI (SK-MEL-2 melanoma) was 33.1 µM, the GI50 (UACC-62 melanoma) was 5.65 µM and the TGI (UACC-62 melanoma) was 18.7 µM. The GI50 (CCRF-CEM leukemia) was 3 µM, the TGI (CCRF-CEM leukemia) was 7.85 µM and the GI50 (IGROV1 ovarian) was 3.98 µM. It also gave a TGI (IGROV1 ovarian) of 16.3 µM, a GI50 (SF-268 CNS) of 1.78 µM and a TGI (SF-268 CNS) of 3.59 µM.
